Experiments:
[1] = test system: CD133+ pancreatic cancer stem cells (L3.6pl cells); experiment: CD133 content by flow cytometry in L3.6pl pancreatic cancer cells; type: cell-based, human; settings: 48 hours of therapy; Gemcitabine 100 ng/ml
Protocol: In this experiment, potentially effective substances for the targeted elimination of CD133^+ pancreatic cancer stem cells (CSC) were screened by means of flow cytometry following 48 hours of therapy. […] As a Gemcitabine concentration of 100 ng/ml was the lowest concentration capable of achieving a strong relative enrichment for CD133^+ cells through depletion of CD133^− cells, this concentration was chosen for subsequent experiments.
Human pancreatic cancer cell line. The highly metastatic human pancreatic cell line L3.6pl was maintained in DMEM medium (Invitrogen, Karlsruhe, Germany) with 12% Fetal Calf Serum (Biochrom, Berlin, Germany), Glutamax (Invitrogen), non-essential amino acids, and vitamins (all from PAN, Aidenbach, Germany) (Hermann et al., 2007, supra). Cultures were kept no longer than 4 weeks after recovery from frozen stocks. CSC spheres were cultured in DMEM-F12 supplemented with B27 (Gibco, Karlsruhe, Germany) and FGF-2 (PeproTech EC, London, United Kingdom) (Hermann et al., 2007, supra).
Cytometry. Pancreatic CSC were identified by CD133/1-APC or CD133-PE (Miltenyi, Bergisch-Gladbach, Germany) (Hermann et al., 2007, supra). Side population experiments were performed as described by Goodell et al. (1996) (see Goodell et al., 1996, J Exp Med 183, 1797-1806) and cells were identified by exclusion of the vital dye Hoechst 33342. To detect activation of the PI3K/Akt/mTOR pathway by means of the phosphorylation status of the s6 ribosomal protein (s6rp), cells cultivated with standard medium were stained with a rabbit anti-phospho-S6 ribosomal protein antibody (Cell Signalling Technology, Danvers, Mass.).
(§1) In vitro treatment of pancreatic cancer cells. […] For the evaluation of the in vivo tumorigenicity, […] L3.6pl cells were pretreated with the respective regimen and the remaining viable cells were orthotopically implanted into the pancreas of nude mice and evaluated on day 35. For the systemic infusion assay, cells were labelled with the Qtracker 800 labelling kit (Invitrogen) according to the manufacturer's instructions, and 5×10^5 cells were injected intravenously into mice. After 4 weeks, explanted lungs were scanned for metastases with a near-infrared imaging platform (Odyssey, Li-cor, Lincoln, Nebr.). Positive signals were verified by histology (H&E staining).
Using SB431542, a specific inhibitor of the receptors for Nodal and Activin, ALK-4 and -7 respectively, it was investigated whether the content of the CD133(+) population is affected by inhibition of Activin/Nodal signaling. As mutations affecting the TGF-superfamily pathway are very common in pancreatic neoplasms, pancreatic cell lines harboring different mutations in this pathway were screened (Table 1).

[2] = test system: pancreatic cancer cells; experiment: Transmigration assay (modified Boyden chamber, SDF-1 stimulus); type: cell-based, human; settings: SDF-1 as migratory stimulus
[3] = test system: L3.6pl orthotopic pancreatic tumours; experiment: In vivo treatment of established orthotopic pancreatic cancer (Gemcitabine, Cyclopamine, Rapamycin)
Protocol: Gemcitabine was administered twice a week by intraperitoneal injections at 125 mg/kg BW.
In order to test the identified combination therapy in a clinically most relevant setting, a model of established orthotopic pancreatic cancer was used in this experiment. […] The detailed experimental setup is depicted in FIG. 21A. […] Gemcitabine was given for a prolonged period of 11 weeks in analogy to clinical practice. Tumour volume was non-invasively measured on day 42 using a caliper (FIG. 21B), and was controlled via MR imaging on day 49 (FIG. 21C).
Animals and Orthotopic Implantation of Tumour Cells. Single-cell suspensions were orthotopically implanted into the pancreas of female NMRI nu/nu mice (Janvier, Le Genest-Saint-Isle, France) (Hermann et al., 2007, supra). Size and weight of the pancreatic tumours were monitored.
In vivo treatment of established pancreatic cancers. Seven days after orthotopic implantation of L3.6pl cells, mice were randomized to the respective treatment groups. Gemcitabine was administered biweekly (125 mg/kg i.p.). […] Rapamycin (5 mg/kg/day; Wyeth, Madison, N.J.) was orally administered via the drinking water as reported previously (Huber et al., 2007, supra).

[4] = test system: pretreated Qtracker-labeled pancreatic cancer cells; experiment: Systemic infusion assay of pretreated cells (lung metastasis); type: in vivo, mice; settings: cells pretreated in vitro, systemically infused; lungs scanned
From the text: Recently, the inventors have shown that the chemokine receptor CXCR4 and its specific lig- and Stromal-Derived Factor-1 (SDF-1) plays a pivotal role in metastasis of pancreatic CSC (see Hermann et al., 2007, supra). […] Pretreated and Qtracker-labeled cells were systemically infused. Seeded cells were tracked using near infrared scanning of the lungs as the primary target organ. Positive signals were confirmed by histological analysis.
as §1

For `Nc1ccn(C2OC(CO)C(O)C2(F)F)c(=O)n1` (stereo not drawn) [Gemcitabine, 4-amino-1-[3,3-difluoro-4-hydroxy-5-(hydroxymethyl)tetrahydrofuran-2-yl]-1H-pyrimidin-2-one], the “CD133+ cell content” value [1] was “marked enrichment”, the migratory activity [2] was “unable to significantly reduce” and the “prolongation of median survival” value ([3]; Gemcitabine 125 mg/kg i.p. twice a week) was 22 days. For the same compound, the survival ([3]; Gemcitabine vs control, CRG vs Gemcitabine alone) was “significantly prolonged”, the tumour size ([3]; compared to control) was “significantly smaller compared to control” and the “tumour volume on day 42 (caliper)” value ([3]; day 42) was “considerable tumor size”. For the same compound, the “tumour volume via MR imaging on day 49” value ([3]; day 49) was “considerable tumor size”, the “latest day of survival” value ([3]; mouse, in vivo) was ≤ 71 days and the median survival ([3]; mouse, in vivo) was 57 days. For the same compound, the tumour take rate ([3]; mouse, in vivo) was 100%, the “CD133+ cells in the residual tumour tissue” value ([3]; orthotopic mouse model of xenotransplanted human pancreatic cancer) was “significant enrichment” and the “metastatic activity in vivo” value [4] was “all mice receiving Gemcitabine-pretreated cells showed evidence for metastasis”.

From US20110151020A1, “ACTIVE SUBSTANCE COMBINATION WITH GEMCITABINE FOR THE TREATMENT OF EPITHELIAL CANCER” (priority 2008, published 2011)
